# Assay results taken from publication PMC12053642, “Oral PRI-002 treatment in patients with MCI or mild AD: a randomized, double-blind phase 1b trial” (Nature Communications, 2025).
# Values joined by “and” are separate entries in the source; they are usually repeats but may differ in a detail not shown here. Equal entries are not always repeated. “Also recorded” adds a separate entry of the source. Square brackets hold non-standard residues; d marks the D form. Peptide text beside a SMILES is read from it.
# Experiments:
# [1] = system: patients with MCI or mild dementia due to AD; test: Adverse events assessment (AE/SAE, MedDRA 23.0), phase 1b trial; settings: 300 mg q.d. oral 28 d
# Method: During treatment, the frequency of study visits at the trial site was 14 days (Day 1, day 14, Day 28). A last assessment took place at Day 56. At Day 7 and Day 21 additional phone contacts for safety assessments were performed.
# For safety assessment during baseline, at Day 14, 28, and 56, laboratory parameters and vital signs were measured, a physical exam was performed, and ECGs were recorded per protocol. […] In addition, nature, frequency, severity, and timing of AEs and SAEs were recorded at day 14, 28, and 56. Standardized AE reports were provided and analysed by the Data Safety and Monitoring Board (DSMB).
# Primary endpoints included nature, frequency, severity, and timing of AEs and SAEs; changes in routine laboratory values, ECG, MRI, EEG, and vital signs.
# [2] = system: patients with MCI or mild dementia due to AD; test: Other tests of the CERAD+ battery (TMT-A, TMT-B, figure drawing, figure recall, clock, WMS delayed recall); format: in vivo, human; set-up: Fig Recall (Figure Recall test), mean / Clock (Clock drawing test), mean / WMS delayed recall (Wechsler Memory Scale), mean / Fig Draw (Figure Drawing test), mean / Fig Recall / Clock / WMS delayed recall / Fig Draw: scale not given here; TMT-B (Trail Making Test B), mean / TMT-A / TMT-B: unit not given here; settings: for Clock (Clock drawing test), mean / Fig Draw (Figure Drawing test), mean / Fig Recall (Figure Recall test), mean / TMT-A (Trail Making Test A), mean / TMT-B (Trail Making Test B), mean / WMS delayed recall (Wechsler Memory Scale), mean: 300 mg q.d. oral 28 d; for Clock / Fig Draw / Fig Recall / TMT-A / TMT-B / WMS delayed recall: individual patient values, PRI-002 group
# Method: The effect of PRI-002 on cognition and function was tested by the CERAD+ battery and CDR-SB at baseline, Day 28, and Day 56, exploratory endpoints included the change of biomarkers (p-tau, t-tau, Aβ 1-40, Aβ 1-42 and Aβ oligomers) in CSF, blood plasma; change in CERAD+ test battery and CDR-SB scores.
compound,measurement,setting,value
CC(C)C[C@@H](NC(=O)[C@H](NC(=O)[C@H]1CCCN1)[C@H](C)O)C(=O)N[C@H](Cc1c[nH]cn1)C(=O)N[C@@H](C(=O)N[C@H](Cc1c[nH]cn1)C(=O)N[C@H](CC(N)=O)C(=O)N[C@H](CCCNC(=N)N)C(=O)N[C@H](CCCNC(=N)N)C(=O)N[C@H](CCCNC(=N)N)C(=O)N[C@H](CCCNC(=N)N)C(=O)N[C@H](CCCNC(=N)N)C(N)=O)[C@H](C)O [PRI-002] (H-[dP][dT][dL][dH][dT][dH][dN][dR][dR][dR][dR][dR]-NH2; N-terminus and C-terminus assumed),SAEs or deaths during the trial,"[1]; n=9, Day 1-56",No SAEs or deaths; also recorded: No SAEs
same,"AEs probably or possibly related to study treatment, number","[1]; Mild (grade 1), n=9",4
same,"AEs probably or possibly related to study treatment, number","[1]; Moderate (grade 2), n=9",2
same,"AEs probably or possibly related to study treatment, number","[1]; Severe (grade 3), n=9",0
same,"Gastrointestinal disorders, number of AEs","[1]; TOTAL, all grades, n=9",1
same,"Injury, poisoning and procedural complications, number of AEs","[1]; TOTAL, all grades, n=9",1
same,"Musculoskeletal and connective tissue disorders, number of AEs","[1]; TOTAL, all grades, n=9",1
same,"Gastrointestinal disorders, number of AEs","[1]; grade 1 (Mild), n=9",1
same,"Injury, poisoning and procedural complications, number of AEs","[1]; grade 1 (Mild), n=9",1
same,"Musculoskeletal and connective tissue disorders, number of AEs","[1]; grade 1 (Mild), n=9",1
same,"Nervous system disorders, number of AEs","[1]; grade 1 (Mild), n=9",5
same,Number of subjects with at least one AE,"[1]; grade 1 (Mild), n=9",4
same,"Psychiatric disorders, number of AEs","[1]; grade 1 (Mild), n=9",3
same,Total number of AEs,"[1]; grade 1 (Mild), n=9",14
same,"Nervous system disorders, number of AEs","[1]; grade 2 (Moderate), n=9",2
same,Number of subjects with at least one AE,"[1]; grade 2 (Moderate), n=9",1
same,Number of subjects with at least one AE,"[1]; grade 3 (Severe), n=9",0
same,Total number of AEs,"[1]; grade 3 (Severe), n=9",0
same,subjects with one or more AEs,"[1]; safety population, n=9",56%
same,"Clock (Clock drawing test), mean","[2]; Day 1 (baseline), N=9",1.7
same,Clock,[2]; Day 1,1.0 and 2.0 and 3.0
same,Fig Draw,[2]; Day 1,11 and 9 and 10 and 8
same,Fig Recall,[2]; Day 1,2 and 4 and 7 and 0 and 6 and 5 and 11 and 8
same,TMT-A,[2]; Day 1,98 and 74 and 60 and 47 and 28 and 43 and 103 and 33 and 58
same,TMT-B,[2]; Day 1,240 and 283 and 160 and 205 and 100 and 77 and 141 and 80 and 132
same,WMS delayed recall,[2]; Day 1,5 and 0 and 4 and 14 and 30 and 7 and 28 and 2
same,"Clock (Clock drawing test), mean","[2]; Day 28, N=8",1.6
same,"Fig Draw (Figure Drawing test), mean","[2]; Day 28, N=8",10.8
same,"Fig Recall (Figure Recall test), mean","[2]; Day 28, N=8",6.9
same,"TMT-A (Trail Making Test A), mean","[2]; Day 28, N=8",58.4
same,"TMT-B (Trail Making Test B), mean","[2]; Day 28, N=8",137.5
same,"WMS delayed recall (Wechsler Memory Scale), mean","[2]; Day 28, N=8",12.8
same,Clock,[2]; Day 28,4.0 and 2.0 and 1.0
same,Fig Draw,[2]; Day 28,11 and 9
same,Fig Recall,[2]; Day 28,0 and 6 and 5 and 11 and 9 and 4
same,TMT-A,[2]; Day 28,98 and 51 and 60 and 36 and 50 and 86 and 26
same,TMT-B,[2]; Day 28,270 and 115 and 127 and 87 and 80 and 155 and 62 and 204
same,WMS delayed recall,[2]; Day 28,2 and 0 and 10 and 9 and 34 and 14 and 27 and 6
same,"Fig Draw (Figure Drawing test), mean","[2]; Day 56, N=9",10.9
same,"Fig Recall (Figure Recall test), mean","[2]; Day 56, N=9",7.4
same,"TMT-A (Trail Making Test A), mean","[2]; Day 56, N=9",53.9
same,"TMT-B (Trail Making Test B), mean","[2]; Day 56, N=9",121.9
same,"WMS delayed recall (Wechsler Memory Scale), mean","[2]; Day 56, N=9",15.0
same,Clock,[2]; Day 56,4.0 and 2.0 and 1.0 and 3.0
same,Fig Draw,[2]; Day 56,11 and 10
same,Fig Recall,[2]; Day 56,0 and 4 and 7 and 2 and 10 and 11
same,TMT-A,[2]; Day 56,70 and 79 and 45 and 88 and 28 and 40 and 51 and 30 and 54
same,TMT-B,[2]; Day 56,238 and 116 and 128 and 182 and 72 and 86 and 119 and 64 and 92
same,WMS delayed recall,[2]; Day 56,3 and 0 and 15 and 30 and 23 and 39 and 10
